One assay concerns the target T1, RORC2-LBD (Homo sapiens, UniProt P51449).
T1 sequence (P51449 269-508 limits assumed): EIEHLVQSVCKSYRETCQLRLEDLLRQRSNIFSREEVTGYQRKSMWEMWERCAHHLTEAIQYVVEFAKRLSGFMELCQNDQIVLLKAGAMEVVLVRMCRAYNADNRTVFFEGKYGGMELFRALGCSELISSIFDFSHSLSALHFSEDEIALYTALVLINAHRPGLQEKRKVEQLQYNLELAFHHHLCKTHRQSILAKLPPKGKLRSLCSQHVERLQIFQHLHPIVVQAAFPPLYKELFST
In words: In vitro test for inhibitory activity on RORγ: TR-FRET screening (RORC2-LBD / SRC1 peptide interaction). Format: biochemical. The following applies: Value of the concentration required for 50% inhibition (EC50) of RORγ, 15 nM RORc-LBD, 200 nM SRC1 peptide, 4° C. overnight. From the text: The compounds of the present application was able to regulate (inhibit) the bioactivity of the nuclear receptor RORγ, and the strength of this regulatory (inhibitory) effect could be evaluated by a TR-FRET (time-resolved fluorescence resonance energy transfer) screening system. Nuclear receptor cofactors (co-activators and co-inhibitors) could regulate the transcription of a target gene by the interaction with nuclear receptors. If a ligand (test compound) affected the interaction between the nuclear receptors and the cofactors, this ligand (test compound) was able to regulate the transcription of the corresponding gene.
This method adopted the TR-FRET (time-resolved fluorescence resonance energy transfer) technique to determine the ability of a compound to regulate the interaction between the polypeptide indirectly bound to APC […] (namely, APC was indirectly bound to the polypeptide by binding to Streptavidin and biotin) and RORC2-LBD linked to a europium (Eu)-labeled anti-His antibody (Perkin Elmer #AD0111). In the absence of the compound, RORC2 could bind to an APC-modified polypeptide. If the compound was an agonist, it could enhance the interaction between RORC2 and the APC-modified polypeptide after binding to RORC2. On the contrary, if the compound was an inverse agonist, it could inhibit the interaction between RORC2 and the APC-modified polypeptide after binding to RORC2. When the APC-modified polypeptide and the Eu-labeled anti-His antibody-RORC2-LBD complex approached to each other and the distance therebetween was within a certain distance, energy transfer could occur and a TR-FRET signal was generated.
A buffer solution comprising 50 mM Tris (pH 7.0), 50 mM KCl, 1 mM Na-EDTA, 0.01% BSA (0.1 mg/ml), and 0.1 mM DTT was freshly formulated prior to the experiment.
2.3 Formulation of a RORγ-containing working solution. Prior to the test, a working solution containing 1.67 nM Eu/anti-His and 0.75 μl/well of SF9 cell lysate was freshly formulated, and was placed on ice before use. 25.05 nM of RORγ was added to the working solution.
2.5 Ten concentration gradients were set for each test compound, and duplicate wells were set for each concentration. The formulating method of the test compounds was as follows: […]
2) 15 μl of the RORγ-containing working solution was added to columns 1 to 21 of the tested 384-well plate (the final concentration of Eu/anti-His was 1 nM, and the final concentration of RORg was 15 nM); and […]
9) data analysis was performed using the ratio of the numerical value detected at an emission wavelength of 665 nm to the numerical value detected at an emission wavelength of 615 nm. […]
On the technique in general: TR-FRET usually uses a lanthanide donor and a delayed reading to cut background.

Assay [1] has as its system imiquimod-induced psoriasis. In words: In vivo pharmacodynamic study in imiquimod (IMQ)-induced psoriasis model in mice. More on the design: species or system C57BL/6 mice. The note with it: for Clinical scores (Mean ± SEM, n = 8): 75 mg/kg. How it is done: 6- to 8-week old female C57BL/6 mice were selected, depilated on the backs, and sensitized two days later except for the sham operation group. On the day of sensitization, the mice were randomly divided into the following 6 groups (8 mice per group). Group I was a sham operation group; Group II was a vehicle control group and PBS was administered; Group III was a positive control group and 5 mg/kg methotrexate was administered; Groups IV, V and VI were ip treatment group, ig treatment group, and topical treatment group of the compound of Example 1, and 75 mg/kg of the compound of Example 1 was administered via intraperitoneal injection, intragastric administration, and dorsal application, respectively. Administration was started on the day of sensitization, once daily for Group III and twice daily for Groups IV to VI. On the day of sensitization, the mice in Groups II to VI were given 60 to 80 mg of imiquimod cream (5%) on the dorsal skin for 4 consecutive days. (Please refer to Bouchaud, G., et al., Epidermal IL-15Ralpha acts as an endogenous antagonist of psoriasiform inflammation in mouse and man. J. Exp. Med., 2013. 210(10): p. 2105-17.)
The mice were weighed daily from the day of sensitization, and the skin scales, induration, and erythema were observed and scored according to a four-grade scoring method: 0 point, no disease; 1 point, mild; 2 points, moderate; 3 points, severe; and 4 points, very severe. (Please refer to Qin, S., et al., Endogenous n-3 polyunsaturated fatty acids protect against imiquimod-induced psoriasis-like inflammation via the IL-17/IL-23 axis. Mol Med Rep, 2014. 9(6): p. 2097-104.)

Where only a bound is given, the exact number is not on record here.

The results in this text go back to patent US11466024B2, “Bicylic compound acting as an inhibitor” (CHIA TAI TIANQING PHARMACEUTICAL GROUP CO., LTD., priority 2017, dated 2022).

In general, EC50 refers to the concentration that produces a half-maximal response. `CCS(=O)(=O)c1ccc(CNC(=O)c2cc3c(s2)C(C(C)C)N(C[C@H]2CC[C@H](C(F)(F)F)CC2)C3)nc1` (single isomer, unassigned) [Example 1]: on RORC2-LBD, the EC50 is less than 100 nM. Besides, the “effect on reducing the clinical scores compared with 5 mg/kg of methotrexate” value in assay [1] (75 mg/kg by intraperitoneal injection, intragastric administration and dorsal application, FIG. 5) was “equivalent”. In assay [1] (75 mg/kg by intraperitoneal injection, intragastric administration and dorsal application, p<0.01, FIG. 5), the “effect on the clinical scores (skin scales, induration)” value is “reduce the clinical scores significantly”. For the same compound, the “Clinical scores (Mean ± SEM, n = 8)” value in assay [1] (ig, Day 1) came out at 0 ± 0; in assay [1] (ig, Day 2) it was 0.31 ± 0.13; in assay [1] (ig, Day 3), 0.50 ± 0.19; in assay [1] (ig, Day 4), 1.29 ± 0.21; in assay [1] (ig, Day 5), 1.64 ± 0.18; in assay [1] (ip, Day 1) it was 0 ± 0. Besides, the “Clinical scores (Mean ± SEM, n = 8)” value in assay [1] (ip, Day 2) came out at 0.25 ± 0.13; in assay [1] (ip, Day 3), 0.50 ± 0.16; in assay [1] (ip, Day 4), 1.25 ± 0.19; in assay [1] (ip, Day 5), 1.81 ± 0.25; in assay [1] (topical, Day 1), 0 ± 0; in assay [1] (topical, Day 2) it was 0.25 ± 0.13. The “Clinical scores (Mean ± SEM, n = 8)” value in assay [1] (topical, Day 3) is 0.44 ± 0.15; in assay [1] (topical, Day 4), 0.94 ± 0.24; in assay [1] (topical, Day 5), 1.43 ± 0.20.
